The target in one assay is human recombinant BACE1 (Homo sapiens (Human), UniProt P56817). As to the kind of experiment: In vitro enzymatic BACE1 FRET assay. The class given is biochemical. To be noted: read-out: IC50 IP (μM) BACE1 enzyme. Summed up:
(§1)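 FRET cleavage assay using Ni-NTA-purified recombinant protease and 50 nM quenched peptide substrate, 1 h. Stopped by neutralising with Tris; fluorescence at 488/590 nm.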

The target of the next assay is human recombinant BACE2 (Homo sapiens (Human), UniProt Q9Y5Z0). As to the kind of experiment: In vitro enzymatic BACE2 FRET assay. The class given is biochemical. Conditions: read-out: IC50 IP (μM) BACE2 enzyme. Summed up: as §1
For assay [1], the system named is Aβ40 in conditioned medium of cells stably expressing Amyloid Precursor Protein (APP). As to the kind of experiment: In vitro BACE-1 cell-based assay (Aβ40 sandwich ELISA). Conditions: read-out: IC50 IP (μM) BACE1 cell. Summed up: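 APP-stable cells, pre-cultured 24 h at 37° C in DMEM/10% FBS, were treated 24 h with compound in a 10-point series starting at 100 μM or 10 μM (0.1% DMSO final). Secreted Aβ40 in conditioned medium was measured by pAb40/biotin-6E10 sandwich ELISA with Europium time-resolved fluorescence; IC50 from percent inhibition versus concentration.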
In general terms: In an ELISA, binding on a coated surface is turned into a signal by an enzyme label.

Another assay deals with Recombinant Cat D (Homo sapiens (Human), UniProt P07339). As to the kind of experiment: In vitro enzymatic Cathepsin D (Cat D) FRET assay. To be noted: read-out: IC50 IP (μM) CatD. The class given is biochemical. Summed up: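 Fluorescence at 500 nm excitation and 580 nm emission reports cleavage of a quenched fluorophore–quencher peptide (20 nM) by CHO-expressed Cat D. Reactions ran one hour in 0.05 M citrate pH 3.5, 5 mM CHAPS, 10% DMSO final before a Tris stop raised pH to neutrality.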
Recombinant Cat D, sequence (P07339 65-412): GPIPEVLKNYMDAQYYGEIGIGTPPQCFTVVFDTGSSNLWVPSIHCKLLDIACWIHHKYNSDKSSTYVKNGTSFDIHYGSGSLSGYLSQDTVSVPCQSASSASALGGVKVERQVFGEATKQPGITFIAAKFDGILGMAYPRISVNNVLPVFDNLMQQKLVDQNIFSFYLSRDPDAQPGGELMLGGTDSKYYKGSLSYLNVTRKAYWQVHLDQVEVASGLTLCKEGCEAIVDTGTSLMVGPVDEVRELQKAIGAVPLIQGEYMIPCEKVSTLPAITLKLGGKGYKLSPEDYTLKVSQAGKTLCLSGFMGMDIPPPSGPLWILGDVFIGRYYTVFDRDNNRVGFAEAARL

human recombinant BACE2, sequence (Q9Y5Z0 63-518): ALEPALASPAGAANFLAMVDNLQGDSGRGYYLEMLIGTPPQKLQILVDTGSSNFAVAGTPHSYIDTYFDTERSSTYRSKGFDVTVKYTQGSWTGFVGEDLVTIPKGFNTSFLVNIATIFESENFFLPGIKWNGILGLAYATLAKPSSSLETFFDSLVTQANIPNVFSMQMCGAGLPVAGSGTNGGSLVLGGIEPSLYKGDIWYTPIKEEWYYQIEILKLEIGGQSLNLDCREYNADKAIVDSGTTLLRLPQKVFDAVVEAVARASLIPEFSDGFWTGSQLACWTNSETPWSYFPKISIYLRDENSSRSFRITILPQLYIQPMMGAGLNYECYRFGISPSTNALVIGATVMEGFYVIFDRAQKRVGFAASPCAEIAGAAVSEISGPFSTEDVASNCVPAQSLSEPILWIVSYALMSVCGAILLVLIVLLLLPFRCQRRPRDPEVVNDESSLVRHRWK
human recombinant BACE1, sequence (P56817 46-501): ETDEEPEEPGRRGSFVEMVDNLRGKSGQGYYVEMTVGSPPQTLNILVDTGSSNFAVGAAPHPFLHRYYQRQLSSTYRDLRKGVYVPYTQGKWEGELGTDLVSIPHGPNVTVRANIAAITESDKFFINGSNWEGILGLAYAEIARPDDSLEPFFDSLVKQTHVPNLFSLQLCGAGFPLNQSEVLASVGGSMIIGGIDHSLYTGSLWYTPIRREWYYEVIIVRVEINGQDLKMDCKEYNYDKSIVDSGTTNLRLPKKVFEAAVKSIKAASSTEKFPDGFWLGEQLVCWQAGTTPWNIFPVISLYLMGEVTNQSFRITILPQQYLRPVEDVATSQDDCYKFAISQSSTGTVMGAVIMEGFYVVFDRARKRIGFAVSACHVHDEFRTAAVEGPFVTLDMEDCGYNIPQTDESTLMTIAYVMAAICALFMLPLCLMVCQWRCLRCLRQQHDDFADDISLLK

As usually defined, the IC50 is the concentration that inhibits the measured activity by half. In the case of `CN(C)C(=O)/C=C/[C@]12C[C@H]1[C@@](CF)(c1cc(Nc3nccc4nc(OCc5ncco5)cnc34)ccc1F)N=C(N)S2` [Example 769, (2E)-3-((1R,5S,6S)-3-amino-5-(fluoromethyl)-5-(2-fluoro-5-((2-(1,3-oxazol-2-ylmethoxy)pyrido[3,4-b]pyrazin-5-yl)amino)phenyl)-2-thia-4-azabicyclo[4.1.0]hept-3-en-1-yl)-N,N-dimethyl-2-propenamide], the IC50 came out at 0.00143 µM on human recombinant BACE1, 0.023 µM on human recombinant BACE2, 0.00121 µM in assay [1] and 224 µM at Recombinant Cat D.

Take `CC#CCOc1cnc2c(Nc3ccc(F)c([C@@]4(CF)N=C(N)S[C@@]5(/C=C/C(=O)N(C)C)C[C@H]54)c3)nccc2c1` [Example 771, (2E)-3-((1R,5S,6S)-3-amino-5-(5-((3-(2-butyn-1-yloxy)-1,7-naphthyridin-8-yl)amino)-2-fluorophenyl)-5-(fluoromethyl)-2-thia-4-azabicyclo[4.1.0]hept-3-en-1-yl)-N,N-dimethyl-2-propenamide]: the 50% inhibitory concentration (IC50) on human recombinant BACE1 came out at 0.00204 µM; on human recombinant BACE2 it was 0.0786 µM; in assay [1] it was 0.00146 µM; on Recombinant Cat D it was 282 µM.

As to `NC1=N[C@](CF)(c2cc(NC(=O)c3ccc(Cl)cn3)ccc2F)[C@@H]2C[C@]2(/C=C/C(=O)N2CC(F)(F)C2)S1` [Example 772, N-(3-((1R,5S,6S)-3-amino-1-((1E)-3-(3,3-difluoro-1-azetidinyl)-3-oxo-1-propen-1-yl)-5-(fluoromethyl)-2-thia-4-azabicyclo[4.1.0]hept-3-en-5-yl)-4-fluorophenyl)-5-chloro-2-pyridinecarboxamide], the IC50 on human recombinant BACE1 is 0.000429 µM; at human recombinant BACE2 it was < 0.00203 µM; in assay [1], 0.000972 µM; on Recombinant Cat D it was 82 µM.

As for `C#CCOc1cnc2c(Nc3ccc(F)c([C@@]4(CF)N=C(N)S[C@@]5(/C=C/C(=O)N6CC(F)(F)C6)C[C@H]54)c3)nccc2n1` [Example 773, N-(3-((1R,5S,6S)-3-amino-1-((1E)-3-(3,3-difluoro-1-azetidinyl)-3-oxo-1-propen-1-yl)-5-(fluoromethyl)-2-thia-4-azabicyclo[4.1.0]hept-3-en-5-yl)-4-fluorophenyl)-2-(2-propyn-1-yloxy)pyrido[3,4-b]pyrazin-5-amine], the IC50 at human recombinant BACE1 was 0.000423 µM; at human recombinant BACE2, < 0.00203 µM; in assay [1], 0.00148 µM; at Recombinant Cat D, 113 µM.

As to `C#CCOc1cnc(C(=O)Nc2ccc(F)c([C@@]3(CF)N=C(N)S[C@@]4(/C=C/C(=O)N(C)C)C[C@H]43)c2)cn1` [Example 774, N-(3-((1R,5S,6S)-3-amino-1-((1E)-3-(dimethylamino)-3-oxo-1-propen-1-yl)-5-(fluoromethyl)-2-thia-4-azabicyclo[4.1.0]hept-3-en-5-yl)-4-fluorophenyl)-5-(2-propyn-1-yloxy)-2-pyrazinecarboxamide], the IC50 came out at 0.000313 µM at human recombinant BACE1, 0.00575 µM on human recombinant BACE2, 0.000583 µM in assay [1] and 7.95 µM on Recombinant Cat D.

Regarding `CN(C)C(=O)/C=C/[C@]12C[C@H]1[C@@](CF)(c1cc(Nc3ncnc4cc(OCc5ncco5)cnc34)ccc1F)N=C(N)S2` [Example 775, (2E)-3-((1R,5S,6S)-3-amino-5-(fluoromethyl)-5-(2-fluoro-5-((7-(1,3-oxazol-2-ylmethoxy)pyrido[3,2-d]pyrimidin-4-yl)amino)phenyl)-2-thia-4-azabicyclo[4.1.0]hept-3-en-1-yl)-N,N-dimethyl-2-propenamide], the IC50 on human recombinant BACE1 worked out at 0.00112 µM; on human recombinant BACE2, 0.0602 µM; in assay [1], 0.00323 µM; at Recombinant Cat D it was 22.8 µM.

As to `C#CCOc1cnc2c(Nc3ccc(F)c([C@@]4(CF)N=C(N)S[C@@]5(/C=C/C(=O)N(C)C)C[C@H]54)c3)ncnc2c1` [Example 776, (2E)-3-((1R,5S,6S)-3-amino-5-(fluoromethyl)-5-(2-fluoro-5-((7-(2-propyn-1-yloxy)pyrido[3,2-d]pyrimidin-4-yl)amino)phenyl)-2-thia-4-azabicyclo[4.1.0]hept-3-en-1-yl)-N,N-dimethyl-2-propenamide], the 50% inhibitory concentration (IC50) at human recombinant BACE1 was 0.0012 µM; on human recombinant BACE2, 0.0264 µM; in assay [1], 0.00305 µM; at Recombinant Cat D, 293 µM.

For `C/C(=C/[C@]12C[C@H]1[C@@](CF)(c1cc(NC(=O)c3ccc(Cl)cn3)ccc1F)N=C(N)S2)C(=O)N1CCOCC1` [Example 777, N-(3-((1R,5S,6S)-3-amino-5-(fluoromethyl)-1-((Z)-2-methyl-3-morpholino-3-oxoprop-1-en-1-yl)-2-thia-4-azabicyclo[4.1.0]hept-3-en-5-yl)-4-fluorophenyl)-5-chloropicolinamide], the half-maximal inhibitory concentration (IC50) at human recombinant BACE1 is 0.000274 µM; at human recombinant BACE2 it was < 0.00203 µM; in assay [1], 0.000416 µM; at Recombinant Cat D it was 834 µM.

In the case of `C/C(=C\[C@]12C[C@H]1[C@@](CF)(c1cc(NC(=O)c3ccc(Cl)cn3)ccc1F)N=C(N)S2)C(=O)N1CCOCC1` [Example 778, N-(3-((1R,5S,6S)-3-amino-5-(fluoromethyl)-1-((E)-2-methyl-3-morpholino-3-oxoprop-1-en-1-yl)-2-thia-4-azabicyclo[4.1.0]hept-3-en-5-yl)-4-fluorophenyl)-5-chloropicolinamide], the IC50 was 0.00558 µM on human recombinant BACE1, 0.0026 µM on human recombinant BACE2, 0.0134 µM in assay [1] and 557 µM on Recombinant Cat D.

`C#CCOc1cnc2c(Nc3ccc(F)c([C@@]4(CF)N=C(N)S[C@@]5(C(=O)N(C)C)C[C@H]54)c3)nccc2n1` [Example 779, (1S,5S,6S)-3-amino-5-(fluoromethyl)-5-(2-fluoro-5-((2-(2-propyn-1-yloxy)pyrido[3,4-b]pyrazin-5-yl)amino)phenyl)-N,N-dimethyl-2-thia-4-azabicyclo[4.1.0]hept-3-ene-1-carboxamide]: the IC50 was 0.000728 µM at human recombinant BACE1, < 0.00203 µM on human recombinant BACE2, 0.00082 µM in assay [1] and > 400 µM on Recombinant Cat D.

Regarding `C#CCOc1cnc(C(=O)Nc2ccc(F)c([C@@]3(CF)N=C(N)S[C@@]4(c5cnco5)C[C@@H]34)c2)cn1` [Example 780, N-(3-((1S,5S,6S)-3-amino-5-(fluoromethyl)-1-(1,3-oxazol-5-yl)-2-thia-4-azabicyclo[4.1.0]hept-3-en-5-yl)-4-fluorophenyl)-5-(2-propyn-1-yloxy)-2-pyrazinecarboxamide], the IC50 at human recombinant BACE1 was 0.00022 µM; on human recombinant BACE2, < 0.0061 µM; in assay [1] it was 0.00126 µM; on Recombinant Cat D it was 116 µM.

With `C#CCOc1cnc2c(Nc3ccc(F)c([C@@]4(CF)N=C(N)S[C@@]5(c6cnco6)C[C@@H]45)c3)nccc2n1` [Example 781, N-(3-((1S,5S,6S)-3-amino-5-(fluoromethyl)-1-(1,3-oxazol-5-yl)-2-thia-4-azabicyclo[4.1.0]hept-3-en-5-yl)-4-fluorophenyl)-2-(2-propyn-1-yloxy)pyrido[3,4-b]pyrazin-5-amine], the IC50 amounted to 0.000422 µM at human recombinant BACE1, 0.00329 µM at human recombinant BACE2, 0.00577 µM in assay [1] and 397 µM on Recombinant Cat D.

Regarding `C#CCOc1cnc2c(Nc3ccc(F)c([C@@]4(CF)N=C(N)S[C@@]5(c6cnco6)C[C@@H]45)c3)ncnc2c1` [Example 782, N-(3-((1S,5S,6S)-3-amino-5-(fluoromethyl)-1-(1,3-oxazol-5-yl)-2-thia-4-azabicyclo[4.1.0]hept-3-en-5-yl)-4-fluorophenyl)-7-(2-propyn-1-yloxy)pyrido[3,2-d]pyrimidin-4-amine], the IC50 on human recombinant BACE1 was determined as 0.000577 µM; on human recombinant BACE2 it was 0.0245 µM; in assay [1], 0.0197 µM; on Recombinant Cat D, 792 µM.

For `NC1=N[C@](CF)(c2cc(NC(=O)c3cnc(OCc4ncco4)cn3)ccc2F)[C@@H]2C[C@]2(c2cnco2)S1` [Example 783, N-(3-((1S,5S,6S)-3-amino-5-(fluoromethyl)-1-(1,3-oxazol-5-yl)-2-thia-4-azabicyclo[4.1.0]hept-3-en-5-yl)-4-fluorophenyl)-5-(1,3-oxazol-2-ylmethoxy)-2-pyrazinecarboxamide], the IC50 is 0.000501 µM on human recombinant BACE1, 0.00245 µM on human recombinant BACE2, 0.00485 µM in assay [1] and > 400 µM on Recombinant Cat D.

For the compound `C#CCOc1cnc(C(=O)Nc2ccc(F)c([C@@]3(CF)N=C(N)S[C@@]4(c5ocnc5C)C[C@@H]34)c2)cn1` [Example 784, N-(3-((1S,5S,6S)-3-amino-5-(fluoromethyl)-1-(4-methyloxazol-5-yl)-2-thia-4-azabicyclo[4.1.0]hept-3-en-5-yl)-4-fluorophenyl)-5-(prop-2-yn-1-yloxy)pyrazine-2-carboxamide], the IC50 at human recombinant BACE1 is 0.000318 µM; at human recombinant BACE2 it was < 0.00203 µM; in assay [1], 0.00152 µM; on Recombinant Cat D, 166 µM.

On to `NC1=N[C@](CF)(c2cc(NC(=O)c3ccc(Cl)cn3)ccc2F)[C@@H]2C[C@]2(c2cnco2)S1` [Example 785, N-(3-((1S,5S,6S)-3-amino-5-(fluoromethyl)-1-(1,3-oxazol-5-yl)-2-thia-4-azabicyclo[4.1.0]hept-3-en-5-yl)-4-fluorophenyl)-5-chloro-2-pyridinecarboxamide], for which the IC50 was 0.00112 µM at human recombinant BACE1, < 0.00203 µM on human recombinant BACE2, 0.0102 µM in assay [1] and 621 µM at Recombinant Cat D.

The record behind these values is patent US20160046618A1, “Cyclopropyl Fused Thiazin-2-Amine Compounds as Beta-Secretase Inhibitors and Methods of Use” (AMGEN INC., priority 2014, published 2016).
